# Assays:
# CK1α = biological target: T1, CK1α (Homo sapiens, UniProt P48729+Q96SW2); experiment: HiBiT degradation assay, CK1α, Procedure A; type: cell-based; conditions: six hours
# T1 construct: CSNK1A1-HiBit KI HEK293(LgBit) Cells; host or cells: HEK293(LgBit) knock-in cells
# In short: (§1)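 Cells in DMEM+10% FBS at 1×10^6 cells/ml were added to pre-spotted compound (10-point dose response, 10 μM to 0.005 μM, 0.1% DMSO) and incubated 6 h at 37° C. Nano-Glo HiBiT lytic reagent was added and luminescence read. DC50 and Ymin came from 4-parameter curve fits.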
# GSPT1 = GSPT1 (Homo sapiens, UniProt P15170+Q96SW2); experiment: HiBiT degradation assay, GSPT1, Procedure A; type: cell-based; set-up: HiBit-GSPT1 KI HEK293(LgBit) Cells; host or cells: HEK293(LgBit) knock-in cells; conditions: six hours
# Chain of GSPT1 (P15170 whole entry): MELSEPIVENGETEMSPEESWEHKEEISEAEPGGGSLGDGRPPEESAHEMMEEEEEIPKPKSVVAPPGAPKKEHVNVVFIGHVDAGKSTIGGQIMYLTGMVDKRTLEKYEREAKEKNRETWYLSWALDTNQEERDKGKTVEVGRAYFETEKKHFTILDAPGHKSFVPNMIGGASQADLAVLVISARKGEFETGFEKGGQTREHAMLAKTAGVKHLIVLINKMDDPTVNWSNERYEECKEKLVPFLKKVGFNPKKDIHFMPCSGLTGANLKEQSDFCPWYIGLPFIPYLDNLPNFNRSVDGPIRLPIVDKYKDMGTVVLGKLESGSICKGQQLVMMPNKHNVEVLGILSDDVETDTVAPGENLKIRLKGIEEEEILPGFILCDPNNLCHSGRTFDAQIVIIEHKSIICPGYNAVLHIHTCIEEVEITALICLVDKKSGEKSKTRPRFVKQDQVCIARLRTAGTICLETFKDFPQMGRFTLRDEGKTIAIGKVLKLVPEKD
# Chain of GSPT1 (Q96SW2 whole entry): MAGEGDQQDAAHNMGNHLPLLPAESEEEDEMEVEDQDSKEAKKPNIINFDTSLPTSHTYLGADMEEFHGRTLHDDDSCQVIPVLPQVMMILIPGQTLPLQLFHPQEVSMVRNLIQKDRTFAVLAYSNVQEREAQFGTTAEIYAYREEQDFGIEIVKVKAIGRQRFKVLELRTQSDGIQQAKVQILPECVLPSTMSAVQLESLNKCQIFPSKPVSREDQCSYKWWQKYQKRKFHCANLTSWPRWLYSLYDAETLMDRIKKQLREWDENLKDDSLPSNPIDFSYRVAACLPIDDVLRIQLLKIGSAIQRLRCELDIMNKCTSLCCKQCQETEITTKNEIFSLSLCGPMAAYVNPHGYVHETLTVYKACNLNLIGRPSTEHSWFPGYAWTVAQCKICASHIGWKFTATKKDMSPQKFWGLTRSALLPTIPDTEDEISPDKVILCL
# Chain of GSPT1 (Q16531 whole entry partner): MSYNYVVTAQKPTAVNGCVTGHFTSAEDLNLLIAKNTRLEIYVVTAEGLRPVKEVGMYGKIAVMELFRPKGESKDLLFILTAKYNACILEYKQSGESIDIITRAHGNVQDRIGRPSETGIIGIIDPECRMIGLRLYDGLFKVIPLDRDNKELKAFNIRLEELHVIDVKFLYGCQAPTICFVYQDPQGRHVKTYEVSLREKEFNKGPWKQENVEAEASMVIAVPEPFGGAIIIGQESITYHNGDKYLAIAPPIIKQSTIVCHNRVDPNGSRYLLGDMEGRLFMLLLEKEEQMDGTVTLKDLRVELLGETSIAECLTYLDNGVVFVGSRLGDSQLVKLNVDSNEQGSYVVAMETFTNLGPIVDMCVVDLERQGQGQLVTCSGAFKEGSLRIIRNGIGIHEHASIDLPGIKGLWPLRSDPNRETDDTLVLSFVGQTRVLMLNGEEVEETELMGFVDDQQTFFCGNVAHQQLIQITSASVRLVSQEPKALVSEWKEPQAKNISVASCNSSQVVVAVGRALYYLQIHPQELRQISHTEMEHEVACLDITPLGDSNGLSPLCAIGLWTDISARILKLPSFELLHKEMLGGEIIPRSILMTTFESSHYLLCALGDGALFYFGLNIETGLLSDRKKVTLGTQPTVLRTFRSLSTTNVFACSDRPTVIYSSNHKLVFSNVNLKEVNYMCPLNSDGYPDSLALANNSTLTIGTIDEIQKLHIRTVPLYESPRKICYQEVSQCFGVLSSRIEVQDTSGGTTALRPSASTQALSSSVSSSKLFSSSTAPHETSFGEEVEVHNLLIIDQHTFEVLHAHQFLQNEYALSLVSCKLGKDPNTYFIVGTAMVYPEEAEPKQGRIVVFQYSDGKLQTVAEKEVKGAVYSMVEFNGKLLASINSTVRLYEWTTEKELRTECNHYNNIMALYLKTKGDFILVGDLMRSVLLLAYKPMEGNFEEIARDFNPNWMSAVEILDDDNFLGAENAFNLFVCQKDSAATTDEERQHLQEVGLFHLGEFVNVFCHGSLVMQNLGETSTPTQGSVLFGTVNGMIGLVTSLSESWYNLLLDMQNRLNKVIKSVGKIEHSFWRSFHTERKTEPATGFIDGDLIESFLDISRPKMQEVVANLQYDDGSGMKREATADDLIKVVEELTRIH
# In short: as §1
# T1 sequence (P48729 whole entry): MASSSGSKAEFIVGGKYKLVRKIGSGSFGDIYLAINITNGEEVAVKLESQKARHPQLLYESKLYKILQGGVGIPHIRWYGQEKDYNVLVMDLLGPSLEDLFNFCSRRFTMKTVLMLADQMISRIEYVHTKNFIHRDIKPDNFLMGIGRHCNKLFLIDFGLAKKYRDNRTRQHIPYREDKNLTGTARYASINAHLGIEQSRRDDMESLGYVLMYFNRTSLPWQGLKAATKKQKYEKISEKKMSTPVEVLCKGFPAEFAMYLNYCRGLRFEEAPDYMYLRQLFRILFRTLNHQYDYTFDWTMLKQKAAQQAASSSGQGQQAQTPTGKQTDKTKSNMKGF
# T1 sequence (Q96SW2 whole entry): as the sequence (Q96SW2 whole entry) above
# T1 sequence (Q16531 whole entry partner): as the sequence (Q16531 whole entry partner) above
SMILES,CK1α Ymin (CK1α),DC50 (CK1α) [nM],DC50 (GSPT1) [nM],GSPT1 Ymin (GSPT1)
Cn1ncc(-c2ccc3c(c2)CN(C2CCC(=O)NC2=O)C3=O)c1-c1ccc(F)cc1C#N (stereo not drawn) [Example 438],E (E = >25-75% remaining),≥ 25,≥ 25,F (F = >75-100% remaining)
Cn1cnc(-c2ccc3c(c2)CN(C2CCC(=O)NC2=O)C3=O)c1-c1ccccc1N (stereo not drawn) [Example 440],C (C = 0-10% remaining),< 25,< 25,E (E = >25-75% remaining)
Cn1cnc(-c2ccc3c(c2)CN(C2CCC(=O)NC2=O)C3=O)c1-c1cccc(F)c1 (stereo not drawn) [Example 441],C (C = 0-10% remaining),< 25,< 25,E (E = >25-75% remaining)
Cc1cccc(C)c1-c1c(-c2ccc3c(c2)CN(C2CCC(=O)NC2=O)C3=O)ncn1C (stereo not drawn) [Example 442],E (E = >25-75% remaining),< 25,≥ 25,F (F = >75-100% remaining)
Cn1cnc(-c2ccc3c(c2)CN(C2CCC(=O)NC2=O)C3=O)c1-c1ccc2c(c1)CCO2 (stereo not drawn) [Example 443],C (C = 0-10% remaining),< 25,< 25,E (E = >25-75% remaining)
Cn1cnc(-c2ccc3c(c2)CN(C2CCC(=O)NC2=O)C3=O)c1-c1ccc(-n2cccn2)cc1 (stereo not drawn) [Example 444],C (C = 0-10% remaining),< 25,< 25,E (E = >25-75% remaining)
Cn1cnc(-c2ccc3c(c2)CN(C2CCC(=O)NC2=O)C3=O)c1-c1ccc(F)cc1C(F)(F)F (stereo not drawn) [Example 445],E (E = >25-75% remaining),< 25,≥ 25,F (F = >75-100% remaining)
COc1ccc2cc(-c3c(-c4ccc5c(c4)CN(C4CCC(=O)NC4=O)C5=O)ncn3C)ccc2c1 (stereo not drawn) [Example 446],D (D = >10- 25% remaining),< 25,< 25,F (F = >75-100% remaining)
Cn1cnc(-c2ccc3c(c2)CN(C2CCC(=O)NC2=O)C3=O)c1-c1ccc(C(=O)Nc2ccccn2)cc1 (stereo not drawn) [Example 447],D (D = >10- 25% remaining),≥ 25,≥ 25,F (F = >75-100% remaining)
Cn1cnc(-c2ccc3c(c2)CN(C2CCC(=O)NC2=O)C3=O)c1-c1ccc(S(=O)(=O)NC2CCCCC2)cc1 (stereo not drawn) [Example 448],D (D = >10- 25% remaining),≥ 25,≥ 25,F (F = >75-100% remaining)
CN1CCN(S(=O)(=O)c2ccc(-c3c(-c4ccc5c(c4)CN(C4CCC(=O)NC4=O)C5=O)ncn3C)cc2)CC1 (stereo not drawn) [Example 449],E (E = >25-75% remaining),≥ 25,≥ 25,F (F = >75-100% remaining)
Cn1ncc(-c2ccc3c(c2)CN(C2CCC(=O)NC2=O)C3=O)c1-c1ccnnc1 (stereo not drawn) [Example 450],F (F = >75-100% remaining),≥ 25,≥ 25,F (F = >75-100% remaining)
Cn1nccc1-c1c(-c2ccc3c(c2)CN(C2CCC(=O)NC2=O)C3=O)cnn1C (stereo not drawn) [Example 451],E (E = >25-75% remaining),≥ 25,≥ 25,F (F = >75-100% remaining)
Cc1oncc1-c1c(-c2ccc3c(c2)CN(C2CCC(=O)NC2=O)C3=O)cnn1C (stereo not drawn) [Example 452],E (E = >25-75% remaining),< 25,≥ 25,F (F = >75-100% remaining)
Cn1ncc(-c2ccc3c(c2)CN(C2CCC(=O)NC2=O)C3=O)c1-c1cccnc1N (stereo not drawn) [Example 453],E (E = >25-75% remaining),< 25,≥ 25,F (F = >75-100% remaining)
Cc1cc(-c2c(-c3ccc4c(c3)CN(C3CCC(=O)NC3=O)C4=O)cnn2C)n(C)n1 (stereo not drawn) [Example 454],F (F = >75-100% remaining),≥ 25,≥ 25,F (F = >75-100% remaining)
Cn1ncc(-c2ccc3c(c2)CN(C2CCC(=O)NC2=O)C3=O)c1-c1cccc(C#N)n1 (stereo not drawn) [Example 455],E (E = >25-75% remaining),≥ 25,≥ 25,F (F = >75-100% remaining)
COc1cncc(-c2c(-c3ccc4c(c3)CN(C3CCC(=O)NC3=O)C4=O)cnn2C)c1 (stereo not drawn) [Example 456],E (E = >25-75% remaining),≥ 25,≥ 25,F (F = >75-100% remaining)

# Continued, values first:
CK1α Ymin (CK1α),DC50 (CK1α) [nM],DC50 (GSPT1) [nM],GSPT1 Ymin (GSPT1),SMILES
C (C = 0-10% remaining),< 25,≥ 25,F (F = >75-100% remaining),"O=C1CCC(N2Cc3cc(-c4cn(CC(F)(F)F)nc4-c4ccccc4)ccc3C2=O)C(=O)N1 (stereo not drawn) [Example 427, 3-(1-oxo-5-(3-phenyl-1-(2,2,2-trifluoroethyl)-1H-pyrazol-4-yl)isoindolin-2-yl)piperidine-2,6-dione]"
C (C = 0-10% remaining),< 25,≥ 25,F (F = >75-100% remaining),"Cn1ncc(-c2ccc3c(c2)CN(C2CCC(=O)NC2=O)C3=O)c1-c1ccc2c(c1)OC(F)(F)O2 (stereo not drawn) [Example 428, 3-(5-(5-(2,2-difluorobenzo[d][1,3]dioxol-5-yl)-1-methyl-1H-pyrazol-4-yl)-1-oxoisoindolin-2-yl)piperidine-2,6-dione]"
D (D = >10- 25% remaining),< 25,< 25,F (F = >75-100% remaining),"CCn1ncc(-c2ccc3c(c2)CN(C2CCC(=O)NC2=O)C3=O)c1-c1ccccc1 (stereo not drawn) [Example 429, 3-(5-(1-ethyl-5-phenyl-1H-pyrazol-4-yl)-1-oxoisoindolin-2-yl)piperidine-2,6-dione]"
D (D = >10- 25% remaining),< 25,≥ 25,F (F = >75-100% remaining),"O=C1CCC(N2Cc3cc(-c4cnn(CC(F)F)c4-c4ccccc4)ccc3C2=O)C(=O)N1 (stereo not drawn) [Example 430, 3-(5-(1-(2,2-difluoroethyl)-5-phenyl-1H-pyrazol-4-yl)-1-oxoisoindolin-2-yl)piperidine-2,6-dione]"
C (C = 0-10% remaining),< 25,≥ 25,F (F = >75-100% remaining),"[2H]C([2H])([2H])n1ncc(-c2ccc3c(c2)CN(C2CCC(=O)NC2=O)C3=O)c1-c1ccc(OC)c(F)c1 (stereo not drawn) [Example 431, 3-(5-(5-(3-fluoro-4-methoxyphenyl)-1-(methyl-d3)-1H-pyrazol-4-yl)-1-oxoisoindolin-2-yl)piperidine-2,6-dione]"
C (C = 0-10% remaining),< 25,≥ 25,F (F = >75-100% remaining),"[2H]C([2H])([2H])n1ncc(-c2ccc3c(c2)CN(C2CCC(=O)NC2=O)C3=O)c1-c1ccc2c(c1)CCO2 (stereo not drawn) [Example 432, 3-(5-(5-(2,3-dihydrobenzofuran-5-yl)-1-(methyl-d3)-1H-pyrazol-4-yl)-1-oxoisoindolin-2-yl)piperidine-2,6-dione]"
C (C = 0-10% remaining),< 25,≥ 25,F (F = >75-100% remaining),"[2H]C([2H])([2H])n1ncc(-c2ccc3c(c2)CN(C2CCC(=O)NC2=O)C3=O)c1-c1ccc(OC)cc1 (stereo not drawn) [Example 433, 3-(5-(5-(4-methoxyphenyl)-1-(methyl-d3)-1H-pyrazol-4-yl)-1-oxoisoindolin-2-yl) piperidine-2,6-dione]"
C (C = 0-10% remaining),< 25,≥ 25,F (F = >75-100% remaining),"[2H]C([2H])([2H])n1ncc(-c2ccc3c(c2)CN(C2CCC(=O)NC2=O)C3=O)c1-c1ccc(OC)cc1Cl (stereo not drawn) [Example 434, 3-(5-(5-(2-chloro-4-methoxyphenyl)-1-(methyl-d3)-1H-pyrazol-4-yl)-1-oxoisoindolin-2-yl)piperidine-2,6-dione]"
E (E = >25-75% remaining),< 25,< 25,F (F = >75-100% remaining),"[2H]C([2H])([2H])n1ncc(-c2ccc3c(c2)CN(C2CCC(=O)NC2=O)C3=O)c1-c1ccc(OC(F)(F)F)cc1 (stereo not drawn) [Example 435, 3-(5-(1-(methyl-d3)-5-(4-(trifluoromethoxy)phenyl)-1H-pyrazol-4-yl)-1-oxoisoindolin-2-yl) piperidine-2,6-dione]"
D (D = >10- 25% remaining),< 25,≥ 25,F (F = >75-100% remaining),"[2H]C([2H])([2H])n1ncc(-c2ccc3c(c2)CN(C2CCC(=O)NC2=O)C3=O)c1-c1ccc(OC(F)F)cc1 (stereo not drawn) [Example 436, 3-(5-(5-(4-(difluoromethoxy)phenyl)-1-(methyl-d3)-1H-pyrazol-4-yl)-1-oxoisoindolin-2-yl)piperidine-2,6-dione]"
C (C = 0-10% remaining),< 25,< 25,F (F = >75-100% remaining),"[2H]C([2H])([2H])n1cc(-c2ccc3c(c2)CN(C2CCC(=O)NC2=O)C3=O)nc1-c1ccccc1 (stereo not drawn) [Example 437, 3-(5-(1-(methyl-d3)-2-phenyl-1H-imidazol-4-yl)-1-oxoisoindolin-2-yl)piperidine-2,6-dione]"
C (C = 0-10% remaining),< 25,< 25,E (E = >25-75% remaining),Cn1cnc(-c2ccc3c(c2)CN(C2CCC(=O)NC2=O)C3=O)c1-c1ccc(N)cc1 (stereo not drawn) [Example 439]
